According to patent US6156801A, “2-phenoxyaniline derivatives” (Taisho Pharmaceutical Co., Ltd., priority 1997, dated 2000):
Counter-ions that a name gives are not always drawn.

Biological target: T1, Na^+ /Ca^2+ exchange system (Canis lupus familiaris, UniProt P23685)
T1 construct: Sarcolemmal vesicles which were prepared from the removed dog ventricular muscles; from tissue; host or cells: dog ventricular muscle, sarcolemmal vesicles
Experiment: Inhibitory action on Na+/Ca2+ exchange system using myosarcolemmal vesicles (45Ca uptake)
Type: biochemical
Conditions: sarcolemmal vesicles from dog ventricular muscles; Na+-loaded; 20 μM [45Ca]-calcium chloride, pH 7.4, 10 seconds uptake
Description: Inhibitors Action on a Na^+ /Ca^2+ Exchange System using Myosarcolemmal Vesicles Sarcolemmal vesicles which were prepared from the removed dog ventricular muscles by referring to the method described in the literature (L. R. Jones, Methods, Enzymol., 1988, 157, pp. 85) were used. A Na^+ /Ca^2+ exchange activity using the sarcolemmal vesicles was measured by referring to the method described in the literature (K. D. Philipson, et al., J. Biol. Chem., 1980, 255, pp. 6880). First, the sarcolemmal vesicles were suspended in a sodium-containing solution [160 mM sodium chloride, 20 mM […] (pH 7.4)] to make up to a protein concentration of 1.5 mg/ml, and allowed to stand for an hour to load Na^+ in the sarcolemmal vesicles. To 2.5 μl of the sarcolemmal vesicles was added 125 μl of a [^45 Ca]-calcium chloride solution [20 μM [^45 Ca]-calcium chloride, 160 mM potassium chloride and 20 mM Mops-Tris (pH 7.4)], and after 10 seconds, 900 μl of an ice-cooled lanthanum chloride solution [10 mM lanthanum chloride, 160 mM potassium chloride and 20 mM Mops-Tris (pH 7.4)] was added. The sarcolemmal vesicles were recovered on a nitrocellulose filter by suction filtration and washed three times with 900 μl of a lanthanum chloride solution. The concentration of Ca^2+ uptake in the sarcolemmal vesicles was determined by measuring a ^45 Ca radioactivity by a scintillator. In addition, a Na^+ /Ca^2+ exchange activity-independent Ca^2+ uptake in the sarcolemmal vesicles was determined by carrying out the same procedure using a potassium-containing solution [160 mM potassium chloride, 20 mM Tris-hydrochloric acid (pH 7.4)] instead of the sodium-containing solution. The test compound was used as a dimethyl sulfoxide solution thereof, and its inhibitory effect was evaluated in comparison with the vehicle-treatedgroup. The IC50 value was determined from a dose inhibition curve of the test compound by using the minimum square method.

COc1ccc(Oc2ccc(OCc3ccccc3)cc2)c(N)c1 [Example 1, 2-[4-(Benzyloxy)phenoxy]-5-methoxyaniline hydrochloride]
IC50: 1100 nM

Nc1cccc(N)c1Oc1ccc(OCc2ccccc2)cc1 [Example 14, 2-[4-(Benzyloxy)phenoxy]-1,3-phenylenediamine dihydrochloride]
IC50: 8200 nM

CCOc1ccc(Oc2ccc(OCc3ccccc3)cc2)c(N)c1 [Example 17, 2-[4-(Benzyloxy)phenoxy-5-ethoxyaniline hydrochloride]
IC50: 2500 nM

NC(=O)COc1ccc(Oc2ccc(OCc3ccccc3)cc2)c(N)c1 [Example 19, 3-Amino-4-[4-(benzyloxy)phenoxy]phenoxy-acetamide hydrochloride]
IC50: 14000 nM

COC(=O)COc1ccc(Oc2ccc(OCc3ccccc3)cc2)c(N)c1 [Example 20, Methyl 3-amino-4-[4-(benzyloxy)-phenoxy]phenoxyacetate hydrochloride]
IC50: 2800 nM
